Experimental findings from publication PMC7497679, “Structure-based design, synthesis, and evaluation of the biological activity of novel phosphoroorganic small molecule IAP antagonists” (Investigational New Drugs, 2020) are described below.

The target of this test is T1, XIAP BIR3 domain (Homo sapiens, UniProt P98170).
T1 construct: fluorescent probe 4 and the XIAP BIR3 domain (Sino Biological, Beijing, China) were used for all measurements; purchased Sino Biological, Beijing, China
Put plainly: Fluorescence polarization inhibition (competition) assay. It counts as binding. The conditions noted are these: for inhibition at 50 µM: 0.5 h. The method, then:
The fluorescence polarization assay was performed at r.t. in Corning 384-well black, polystyrene flat bottom plates (Corning, NY, USA) on a Synergy H4 Hybrid Reader (BioTek, Bad Friedrichshall, Germany). For fluorescence polarization measurements, (milipolarization units, mP) 484/20 nm excitation and 528/20 nm emission filters were selected. Phosphate buffer (pH 7.5) supplemented with γ-globulin (100 µg/mL) and NaN3 (0.02% w/v), fluorescent probe 4 and the XIAP BIR3 domain (Sino Biological, Beijing, China) were used for all measurements. All experiments were performed in duplicate. The obtained fluorescence polarization assay data were analyzed with Prism 5.0 Software (GraphPad Software, San Diego, ca.).
After a 15 min incubation at r.t., fluorescent probe 4 (2 nM) was added. The values were measured 30 min after the moment the probe was added. The assay was performed in phosphate buffer with a final DMSO concentration of 1.4% (v/v). […] In order to evaluate the quality and precision of the performed screening assay, we determined the Z´ factor as described by Zhang et al.. The obtained fluorescence polarization values were used to determine the percent inhibition, which was plotted as a function of the protein concentration. The EC50 and Ki values were calculated with GraphPad software (log(agonist) vs. response (variable slope) model) in combination with the web tool developed by Nikolovska-Coleska et al..
Fluorescence polarization inhibition assay and data analysis for 41m and 42m compounds was performed as described in the Material and Methods section of the manuscript. Briefly, 50 nM solution of the BIR3 XIAP protein in polarization buffer was added into phosphoroorganic compound solution (from 50 μM to 0.0537 nM). After 15 min incubation at r.t. the fluorescent probe 4 (2 nM) was added.
The values were read after 30 minutes from the moment the probe was added. The obtained fluorescence polarization values were used to determine the percentage of inhibition which was plotted as a function of the protein concentration (Supplementary Figure S4).
(1 picture or pasted object on this page, not shown here)

The mark [1] stands for this setting: XIAP BIR3 50 nM, fluorescent probe 4 2 nM, read-out: EC50.
Setting [2] is: antagonist 50 µM, inhibition of protein-probe interaction.
The mark [3] stands for this setting: XIAP BIR3 50 nM, fluorescent probe 4 2 nM.
[4] abbreviates: XIAP BIR3 50 nM, fluorescent probe 4 2 nM, read-out: log EC50 (converted).

Like-named read-outs stand apart in the source and are kept apart here. Peptide text beside a SMILES is read from it.

T1 sequence (P98170 252-356 limits assumed): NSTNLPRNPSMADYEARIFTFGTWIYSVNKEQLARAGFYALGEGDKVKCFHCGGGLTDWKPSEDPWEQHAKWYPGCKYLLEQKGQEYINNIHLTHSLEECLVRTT

Broadly, the EC50 is the concentration that produces a half-maximal response. On to `CC(C)[C@H](NC(=O)[C@H](C)N)C(=O)N1CCC[C@H]1C(=O)N[C@@H](Cc1c[nH]c2ccccc12)C(=O)O` [Compound 3, H2N-Ala-Val-Pro-Trp-OH, reference compound] (H-AVPW-OH), for which the EC50 under setting [1] stood at 0.34 µM.
In general, inhibition refers to the relative decrease from the control value, in per cent. For orientation: Ki means a measure of affinity in units of concentration, obtained from inhibition or displacement. On to `CN[C@@H](C)C(=O)N[C@H](C(=O)N1CCC[C@H]1C(=O)NCP(=O)(C(C)(C)C)C(C)(C)C)C(C)C` [Compound 5], for which the inhibition at 50 µM under setting [2] came to 63.2%. Besides, the inhibition constant Ki under setting [3] worked out at 14.7 µM. Also, the half-maximal effective concentration (EC50) under setting [1] came out at 29.6 µM and the EC50 under setting [4] was 29.6 µM.
For `CN[C@@H](C)C(=O)N[C@H](C(=O)N1CCC[C@H]1C(=O)NCP(=O)(C(C)(C)C)C(C)(C)C)C1CCCCC1` [Compound 6], the inhibition at 50 µM under setting [2] was 72%. Besides, the inhibition constant (Ki) under setting [3] is 9.87 µM. Also, the EC50 is, setting by setting: under setting [1], 19.9 µM; under setting [4], 19.9 µM.
Take `CN[C@@H](C)C(=O)N[C@H](C(=O)N1CCC[C@H]1C(=O)NCP(=O)(C(C)C)C(C)C)C(C)C` [Compound 7]: the inhibition at 50 µM under setting [2] came to 32%.
In the case of `CN[C@@H](C)C(=O)N[C@H](C(=O)N1CCC[C@H]1C(=O)NCP(=O)(C(C)C)C(C)C)C1CCCCC1` [Compound 8], the inhibition at 50 µM under setting [2] is 41.3%.
With `CN[C@@H](C)C(=O)N[C@H](C(=O)N1CCC[C@H]1C(=O)NCP(=O)(C1CCCCC1)C1CCCCC1)C(C)C` [Compound 9], the inhibition at 50 µM under setting [2] was around 25%.
On to `CN[C@@H](C)C(=O)N[C@H](C(=O)N1CCC[C@H]1C(=O)NCP(=O)(C1CCCCC1)C1CCCCC1)C1CCCCC1` [Compound 10], for which the inhibition at 50 µM under setting [2] is around 25%.
With `CN[C@@H](C)C(=O)N[C@H](C(=O)N1CCC[C@H]1C(=O)NCP(=O)(c1ccccc1)c1ccccc1)C(C)C` [Compound 11], the inhibition at 50 µM under setting [2] was found to be 63.6%. The Ki under setting [3] was 14.5 µM. The EC50 was 29.3 µM under setting [1] and 29.4 µM under setting [4].
Turning to `CN[C@@H](C)C(=O)N[C@H](C(=O)N1CCC[C@H]1C(=O)NCP(=O)(c1ccccc1)c1ccccc1)C1CCCCC1` [Compound 12], under setting [3], the Ki stood at 13 µM and the “log EC50” value came out at 1.420 ± 0.051 µM. Also, under setting [1], the EC50 was 26.3 µM. The “% Inh (50 µM)” value under setting [2] turned out to be 67.1%.
As to `CN[C@@H](C)C(=O)N[C@H](C(=O)N1CCC[C@H]1C(=O)NCP(=O)(c1ccc(C)cc1)c1ccc(C)cc1)C(C)C` [Compound 15, (S)-N-((di-p-tolylphosphoryl)methyl)-1-((S)-3-methyl-2-((S)-2-(methylamino)propanamido)butanoyl)pyrrolidine-2-carboxamide], under setting [2], the inhibition at 50 µM was 61.6%. Also, under setting [3], the inhibition constant (Ki) amounted to 15.3 µM. For the same molecule, the EC50 was 30.8 µM under setting [1] and 30.8 µM under setting [4].
For `CN[C@@H](C)C(=O)N[C@H](C(=O)N1CCC[C@H]1C(=O)NCP(=O)(c1ccc(C)cc1)c1ccc(C)cc1)C1CCCCC1` [Compound 16, (S)-1-((S)-2-cyclohexyl-2-((S)-2-(methylamino)propanamido)acetyl)-N-((di-p-tolylphosphoryl)methyl)pyrrolidine-2-carboxamide], under setting [2], the inhibition at 50 µM is 57%. Also, the inhibition constant (Ki) under setting [3] came out at 20 µM. In addition, the EC50 reads like this: under setting [1], 40.3 µM; under setting [4], 40.4 µM.
With `CN[C@@H](C)C(=O)N[C@H](C(=O)N1CCC[C@H]1C(=O)NC(C)P(=O)(c1ccc(C)cc1)c1ccc(C)cc1)C1CCCCC1` (stereo partly drawn) [Compound 17, (2S)-1-((S)-2-cyclohexyl-2-((S)-2-(methylamino)propanamido)acetyl)-N-(1-(di-p-tolylphosphoryl)ethyl)pyrrolidine-2-carboxamide], the inhibition at 50 µM under setting [2] was 74%. Besides, the Ki under setting [3] is 9.55 µM. Further, the EC50 under setting [1] was found to be 19.3 µM and the half-maximal effective concentration (EC50) under setting [4] is 19.3 µM.
For `CN[C@@H](C)C(=O)N[C@H](C(=O)N1CCC[C@H]1C(=O)NCP(=O)(c1ccccc1C)c1ccccc1C)C(C)C` [Compound 18, (S)-N-((di-o-tolylphosphoryl)methyl)-1-((S)-3-methyl-2-((S)-2-(methylamino)propanamido)butanoyl)pyrrolidine-2-carboxamide], under setting [2], the inhibition at 50 µM came out at 62%. Further, under setting [3], the Ki turned out to be 14.5 µM. Also, the EC50 by setting is: under setting [1], 29.3 µM; under setting [4], 29.2 µM.
